Where a SMILES comes first, the peptide text is derived from it. Where no end group is shown, it is not given here.
Assays:
[1] = target: T1, Human MARK4 (Homo sapiens, UniProt Q96L34); experiment: In vitro kinase assay of MARK4 phosphorylating tau (Western blot); type: biochemical; details: human MARK4 and tau affinity-purified from HEK293 cells, FIG. 7
T1 construct: made in house; host or cells: HEK293 cells
T1 sequence (Q96L34 1-752): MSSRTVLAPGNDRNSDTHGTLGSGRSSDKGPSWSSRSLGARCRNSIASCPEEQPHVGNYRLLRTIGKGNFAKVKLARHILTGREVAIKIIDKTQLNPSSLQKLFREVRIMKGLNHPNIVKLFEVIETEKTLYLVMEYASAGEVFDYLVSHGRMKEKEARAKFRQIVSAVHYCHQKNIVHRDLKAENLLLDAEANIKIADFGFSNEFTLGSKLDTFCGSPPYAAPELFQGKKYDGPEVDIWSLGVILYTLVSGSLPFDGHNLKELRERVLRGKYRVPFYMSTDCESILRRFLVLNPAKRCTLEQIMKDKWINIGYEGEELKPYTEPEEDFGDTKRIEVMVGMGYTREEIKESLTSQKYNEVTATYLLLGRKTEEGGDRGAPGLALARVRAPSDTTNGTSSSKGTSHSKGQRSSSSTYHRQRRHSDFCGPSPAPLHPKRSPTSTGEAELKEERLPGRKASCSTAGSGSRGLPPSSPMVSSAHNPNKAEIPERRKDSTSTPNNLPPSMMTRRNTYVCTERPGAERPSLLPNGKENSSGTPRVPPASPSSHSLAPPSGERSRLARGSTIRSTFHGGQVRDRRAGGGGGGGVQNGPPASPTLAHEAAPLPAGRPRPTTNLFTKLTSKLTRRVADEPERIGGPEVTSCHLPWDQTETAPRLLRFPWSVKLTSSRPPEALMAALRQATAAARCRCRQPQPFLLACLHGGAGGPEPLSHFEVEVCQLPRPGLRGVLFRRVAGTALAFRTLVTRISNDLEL
Excerpt: Both human MARK4 and tau proteins were expressed in HEK293 cells and affinity-purified by immunoprecipitation. After in vitro kinase reaction in the presence or absence of the peptides, the reaction mixtures were separated on SDS-PAGE to separate the proteins, and the levels of total tau and phospho-tau generated by MARK4 were detected by Western blot analysis. The TAT peptide was used as a negative control. Note the inhibition of MARK4-mediated tau phosphorylation by both TAT-MKI and MKI-TAT.
We next tested the ability of the TAT-MKI and MKI-TAT fusions to inhibit the activity of MARK4 kinase in phosphorylating the tau protein (FIG. 7). Human MARK4 and tau proteins were expressed in HEK293 cells and affinity-purified by immunoprecipitation. In vitro kinase reactions were performed in the presence or absence of the TAT-MKI and MKI-TAT fusion peptides and the levels of total tau and phospho-tau generated by MARK4 were detected by Western blot analysis. The TAT peptide was used as a negative control. Both the TAT-MKI and MKI-TAT fusion peptides inhibited MARK4-mediated tau phosphorylation in vitro.

[2] = tested on: Aβ-induced spine loss; details: Zempel et al. (2010); cited from earlier work
[3] = tested on: all MARKs; details: Nesic et al. (2010); cited from earlier work
[4] = tested on: PAR-1/MARK-mediated tau phosphorylation; experiment: Tau phosphorylation in transfected rat hippocampal neurons (western blot / immunostaining with 12E8 and PHF-1 antibodies); type: cell-based
Method: (§1) Robust 12E8 staining (gray) is seen in EGFP-transfected control neurons. Total tau is stained with anti-HA (gray). […] EGFP-transfected neurons served as control. […] Data quantification is shown in (3E) (***P<0.001 in Student's t-test). Scale bar, 10 μm.
(§2) Rat E18 hippocampal neuron primary cultures were prepared as described (Yu et al. (2011) Hum. Mol. Genet. 20:3227-3240, herein incorporated by reference in its entirety). Cultured neurons, grown for 10-days in vitro in 12-well plates, were transfected with 2-3 μg of plasmid per well using a CalPhos Mammalian Transfection Kit (Clontech, San Jose, Calif., USA). Fluorescence immunocytochemistry was performed 3 days after transfection. Preparation and concentration of lentiviral particles were performed as described before (Yu et al., supra). Viral transfection of hippocampal neurons was carried out at 10 days after in vitro culture. The next day, the culture medium was replaced with 50% fresh medium and 50% conditioned medium.
EGFP-tagged PSD-95-WT in the FHUGW lentivirus vector was described before (Xu et al. (2008) Neuron 57:248-262). The S561A mutation was introduced by site-directed mutagenesis. Tau S2A mutations were introduced as described before (Nishimura et al. Cell, 116:671-682), and subcloned into FHUGW with a C-terminal HA tag. EGFP- and HA-tagged human MARK4 constructs were obtained from Dr. Gerard Drewes. MKI cDNA was obtained from Dr. C. […]
(§3) Chicken anti-EGFP (1:4000) and rabbit anti-HA (1:3000) antibodies were purchased from Abcam (Cambridge, Mass., USA); mouse anti-Myc (1:1500, 4A6) and mouse anti-PSD-95 (1:300) from Millipore (Billerica, Mass., USA); rabbit anti-GluR1 (1:200) from Calbiochem (San Diego, Calif., USA) and rabbit anti-Synapsin I (1:1000) from Sigma (St Louis, Mo., USA). […] Dendritic spine number and clusters of PSD-95, GluR1 or Synapsin I were manually counted as the number along a 10 μm length of dendrite and presented as mean±SEM. […] Between 15 and 30 dendritic processes were selected for quantification. Data were analyzed while blind to the conditions.

[5] = tested on: AMP-activated kinase (AMPK); experiment: AMPK kinase activity in neurons detected with phospho-acetyl-CoA carboxylase (Ser79) antibody; type: cell-based, rat; details: specificity control; pACC antibody, FIG. 3C
[6] = tested on: rat hippocampal neurons; experiment: MARK4 overexpression-induced synaptic and spine toxicity in hippocampal neurons; type: cell-based
Method: as §1, §2
Chicken anti-EGFP (1:4000) and rabbit anti-HA (1:3000) antibodies were purchased from Abcam (Cambridge, Mass., USA); mouse anti-Myc (1:1500, 4A6) and mouse anti-PSD-95 (1:300) from Millipore (Billerica, Mass., USA); rabbit anti-GluR1 (1:200) from Calbiochem (San Diego, Calif., USA) and rabbit anti-Synapsin I (1:1000) from Sigma (St Louis, Mo., USA). Immunofluorescence analysis was done essentially as described before (Yu et al., supra). Confocal images were obtained using a Leica TCS SP5 confocal microscope or Zeiss inverted LSM510 confocal microscope (Carl Zeiss, Inc.) with 63× NA 1.4 objectives. Processed confocal images were used to make 2D projections. Dendritic spine number and clusters of PSD-95, GluR1 or Synapsin I were manually counted as the number along a 10 μm length of dendrite and presented as mean±SEM. Each experiment was done at least three times and six to nine neurons were randomly selected for analysis each time. Between 15 and 30 dendritic processes were selected for quantification. Data were analyzed while blind to the conditions.

[7] = tested on: rat hippocampal neurons; type: cell-based; details: FIG. 4D
[8] = tested on: rat hippocampal neurons; experiment: Aβ oligomer-induced synaptic and dendritic spine defects in hippocampal neurons (morphology); type: cell-based; details: 5 μM Aβ oligomer-treated neurons
Method: FIGS. 4A-4C show the effects of MKI-EGFP on Aβ-induced loss of PSD-95 (FIG. 4A) and GluR1 (FIG. 4B) clusters and spine numbers. Neurons transfected with MKI-EGFP or EGFP were treated with Aβ oligomer or mock-treated with solvent as control. The cytoplasmic GFP signals allowed detection of dendritic spines, and PSD-95 or GluR1 clusters were detected by immunostaining. Quantification of data is shown in (FIG. 4C) (***P<0.001 in Student's t-test). […] Summary graphs from four to six culture sets plotting normalized mEPSC frequency and mEPSC amplitude are shown beneath the traces. Scale bar, 5 μm.
as §2
Commercial Aβ-42 peptide was purchased from rPeptide (Bogart, Ga., USA). […]
as §3

Compound: CC(=O)N[C@@H](Cc1ccc(O)cc1)C(=O)NCC(=O)N[C@@H](CCCNC(=N)N)C(=O)N[C@@H](CCCCN)C(=O)N[C@@H](CCCCN)C(=O)N[C@@H](CCCNC(=N)N)C(=O)N[C@@H](CCCNC(=N)N)C(=O)N[C@@H](CCC(N)=O)C(=O)N[C@@H](CCCNC(=N)N)C(=O)N[C@@H](CCCNC(=N)N)C(=O)N[C@@H](CCCNC(=N)N)C(=O)NCC(=O)NCC(=O)N[C@@H](Cc1ccccc1)C(=O)N1CCC[C@H]1C(=O)N[C@@H](CC(C)C)C(=O)N[C@@H](CCCCN)C(=O)N[C@@H](CCCNC(=N)N)C(=O)N[C@@H](Cc1c[nH]cn1)C(=O)N[C@@H](CC(=O)O)C(=O)NCC(=O)N[C@H](C(=O)N[C@@H](CC(=O)O)C(=O)N[C@@H](CC(=O)O)C(=O)N[C@@H](CC(C)C)C(=O)N[C@@H](CO)C(=O)N[C@@H](CCCCN)C(=O)N[C@H](C(=O)NCC(N)=O)C(C)C)C(C)C [TAT-MKI] (Ac-YGRKKRRQRRRGGFPLKRHDGVDDLSKVG-NH2)
- MARK4-mediated tau phosphorylation in vitro [1]: inhibited

Compound: CC(=O)O[C@H]1C(=O)[C@@]2(C)[C@H]([C@H](OC(=O)c3ccccc3)[C@]3(O)C[C@H](OC(=O)[C@H](O)[C@@H](NC(=O)c4ccccc4)c4ccccc4)C(C)=C1C3(C)C)[C@]1(OC(C)=O)CO[C@@H]1C[C@@H]2O [taxol]
- Aβ-induced spine loss [2]: preventable

Compound: MKI: peptide inhibitor (SEQ ID NO:1) derived from the CagA protein of Helicobacter pylori, binds substrate-binding sites of all MARKs (FPLKRHDKVDDLSK)
- binding to the substrate-binding sites of all MARKs [3]: specifically bind with high affinity
- Phosphorylation of tau at the PHF-1 site ([4]; rat hippocampal neurons, western blot, FIG. 3A): reduced

Compound: MKI-EGFP: MKI cDNA subcloned into FHUGW lentivirus vector with a C-terminal EGFP tag, expressed in rat hippocampal neurons (FPLKRHDKVDDLSK; not fully specified (C-terminus))
- phosphorylation of acetyl-CoA carboxylase (ACC) by AMP-activated kinase (AMPK) [5]: did not affect
- MARK4 overexpression-induced reduction of GluR1 puncta density ([6]; FIG. 3E): effectively blocked
- MARK4 overexpression-induced reduction of PSD-95 puncta density ([6]; FIG. 3E): effectively blocked
- MARK4 overexpression-induced spine loss ([6]; co-expression in rat hippocampal neurons, FIGS. 3D and 3E): effectively blocked
- reduction of mEPSC frequency caused by Aβ ([7]; Aβ-treated neurons, held at −70 mV): effectively rescued
- mEPSC amplitude in neurons expressing inhibitor alone ([7]; no Aβ (mock-treated)): not amplitude
- mEPSC frequency in neurons expressing inhibitor alone ([7]; no Aβ (mock-treated)): reduced mEPSC frequency
- Aβ-caused reduction in the density of PSD-95 puncta ([8]; FIGS. 4A and 4C): effectively blocked
- Aβ-caused loss of dendritic spines ([8]; FIGS. 4A-4C): effectively blocked
- Aβ-caused reduction in the density of GluR1 puncta ([8]; FIGS. 4B and 4C): effectively blocked
- MARK4-mediated phosphorylation of transfected human tau at the 12E8 sites ([4]; HA-tagged h-tau-WT in rat hippocampal neurons, immunostaining, FIG. 3B): effectively attenuated
- MARK4-mediated phosphorylation of endogenous tau at the 12E8 sites ([4]; expressed in rat hippocampal neurons, western blot, FIG. 3A): effectively attenuated

— patent publication US20160030510A1, “METHODS OF TREATING ALZHEIMER'S DISEASE AND OTHER TAUOPATHIES WITH INHIBITORS OF MICROTUBULE AFFINITY REGULATING KINASE” (The Board of Trustees of the Leland Stanford Junior …, priority 2012, published 2016)
